Measured values reported in US12527776B2, “Treatment of ciliopathies using inhibitors of glucosylceramide synthase (GCS)” (GENZYME CORPORATION, priority 2019, dated 2026).

Legend:
[1] = tested on: Bbs2−/− mice adipose tissue; experiment: RNA sequencing of adipose tissue of Bbs2−/− mice; format: in vivo, mouse; details: 0.033% w/w in feed from 1 to 6 months of age
Description: Total RNA was isolated from previously flash frozen adipose tissue dissected from four six-month old Wt (Wt #1-4), Bbs2^−/− (Bbs #1-4) or Bbs2^−/− treated with 0.033% w/w of Compound 1 (Bbs+Cmpd1 #1-4) in feed from 1 to 6 months of age using TRIzol (Thermo Fisher Scientific) and chloroform extractions. RNA samples were further purified with RNAeasy Mini Kit (Qiagen) to remove genomic DNA. The concentration and purity of RNA was assessed with a NanoDrop 8000 microspectrophotometer (Thermo Fisher Scientific). RNA integrity was then evaluated with a 4200 TapeStation System (Agilent Technologies).
The sequencing libraries were generated using the TruSeq Stranded mRNA Library Prep Kit as per the manufacturer recommendations (Illumina). Sequencing was performed using High Output NextSeq 500/550 v2.5 kits on an Illumina NextSeq 500 platform (2×75 bp paired-end reads).
Data analysis was performed with Array Studio V10.1 (Omicsoft Corporation, a Qiagen company) and mapped to Genome Reference Consortium Mouse Build 38. Heatmaps are generated using a Center Scale normalization algorithm on median normalized Log 2 expression values as per the software developer (Omicsoft).

[2] = tested on: Bbs2−/− mice; experiment: Olfaction (buried treat test) and main olfactory epithelium immunofluorescence in Bbs2−/− mice; format: in vivo, mouse; details: feed from 1 to 6 months of age
Description: (§1) A Bbs2^−/− mouse model has been described by Nishimura D Y et al. (Proc Natl Acad Sci, 101:16588-16593 (2004)) with exons 5-14 of Bbs2 replaced with a neomycin cassette. Mice were backcrossed into 129/SvJ background. Treated Bbs2^−/− mice were fed ad libitum with 0.033% w/w of Compound 1 incorporated in feed from the age of 1 month to 6 months. Bbs2^−/− and Wt control animals were fed regular 5053 chow (LabDiet). To establish metabolic disease, Bbs2^−/− mice were left untreated until four-months of age, and then treated with Compound 1 incorporated into feed for the fifth and sixth months.
Animal olfaction was tested using a protocol adapted from Yang M. et al. (Curr Protoc Neurosci, DOI:10.1002/0471142301.ns0824s48 (2009)). Before testing, animals were acclimatised for three days and then fasted for 18 hours in cage with Alpha Dri bedding. Treat (Bioserv Supreme Mini-Treats, Chocolate flavor) was buried 1 cm deep in a clean cage with 3 cm deep bedding. Animals were placed in cage and time was recorded when treat was found and bitten into.
Paraffin-embedded samples of nasal cavities from Wt and Bbs2^−/− mice were prepared and analysed as described supra. The primary antibodies used were acetylated tubulin (Cell Signaling Technology), cytokeratin 14 (Protein Tech), SRY-Box 2 (Cell Signaling Technology), doublecortin (Cell Signaling Technology), and olfactory marker protein (Wako).

[3] = tested on: Bbs2−/− immortalized kidney epithelial cells; experiment: Cell culture and primary cilium staining (cilia length, GSL localization); format: cell-based, mouse; details: serum free, compound for 6-24 hours
Description: Cell Culture and Primary Cilium Staining
Wild type and Bbs2^−/− kidney epithelium cell lines were established and maintained as described previously (See Natoli T et al., Nat Med, 16:788-792 (2010); and Humes H D. et al., Am J Kidney Dis, 39:1078-1087(2002)). Cells were cultured on collagen I coated glass slides in DMEM containing 1% penicillin/streptomycin, 10% FBS. To determine the effect of compounds on cilia and lipid localization, cells were cultured in serum free media for 24 hours followed by the addition of Compound 1 for 6-24 hours. Cells were then fixed with 4% paraformaldehyde followed by immunofluorescence with anti-GM3 (Creative Biolabs), anti-ceramide (Sigma Aldrich), anti-GM1 (Invitrogen), and anti-acetylated tubulin (Cell Signaling) antibodies. Cilia length was quantified using Metamorph software.

[4] = tested on: Bbs2−/− mice; experiment: Liver abnormalities in Bbs2−/− mice (liver weight, ALT, triglycerides); format: in vivo, mouse; details: feed from 1 to 6 months of age
Description: as §1
Triglyceride and ALT levels were measured using a VetACE™ analyzer (Alfa Wasserman, West Coldwell, NJ).

## CC(C)(NC(=O)OC1CN2CCC1CC2)c1cccc(-c2ccc(F)cc2)c1 (stereo not shown) [Compound 1, 1-azabicyclo[2.2.2]oct-3-yl [2-(4′-fluorobiphenyl-3-yl)propan-2-yl]carbamate]
[1]
  expression of genes in adipogenesis, ciliogenesis and sphingolipid homeostasis pathways: normalizes the expression of genes
[2]
  adenylate cyclase III (ACIII) in the MOE: increase in ACIII
  cilia in the MOE (acetylated tubulin): preservation/restoration of the cilia in the MOE
  differentiation in MOE (immature vs mature neurons): correction of this phenotype to resemble that of wild type animals
  olfaction defect (time to find a buried treat): restored
[3]
  GM3 localization: restores GM3 localization similar to what is observed in Wt cells
  cilia length: elongates cilia
[4]
  liver weight: normalized
  serum ALT: normalized
  serum triglycerides: normalized
